# Measurements taken from patent US20070117152A1, “Biosensor” (FUJIFILM Corporation, priority 2005, published 2007).
# Experiments:
# [1] = biological target: Carbonic anhydrase (Bos taurus, UniProt P00921); assay: Evaluation of binding ability of hydrochlorothiazide on CA-immobilized chip by surface plasmon resonance (Example 1); conditions: 50 μM in 1×PBS pH 7.4
# Description: (§1) The solution in the measurement chip was removed, and the dielectric block was covered with silicone rubber to prepare a cell having an internal volume of 15 μl. The silicone rubber cover was provided with two pores with diameters of 1 mm, and a teflon tube (i.d.: 0.5 mm; o.d.: 1 mm) was allowed to path therethrough to prepare a flow channel system. The chip provided with such flow channel system was mounted on the surface plasmon resonance measurement device of the present invention. Hereafter, liquid exchange was carried out by pouring 500 μl of liquid for 5 seconds.
# The flow channel was filled with 70 μl of a mixed solution of 200 mM EDC (N-ethyl-N′-(3-dimethylaminopropyl)carbodiimide hydrochloride) and 50 mM NHS (N-hydroxysuccinimide), and was then allowed to stand for 10 minutes. […] The amount of the immobilized proteins was determined based on changes in signal intensities before and after protein immobilization.
# […] Based on the signal intensity before liquid exchange, changes in the signal intensity were measured at intervals of 0.5 seconds. […] Changes in signal intensities were determined from 5 seconds before the initiation of the exchange to 2 minutes after the exchange.
# [2] = biological target: T1, Bovine Carbonic Anhydrase (Bos taurus, UniProt P00921); assay: Evaluation of binding ability of hydrochlorothiazide on CA-immobilized chip by surface plasmon resonance (Example 2); conditions: 50 μM in 1×PBS pH 7.4
# T1 construct: purchased SIGMA
# Description: as §1
# The flow channel was filled with 70 μl of a mixed solution of 200 mM EDC (N-ethyl-N′-(3-dimethylaminopropyl)carbodiimide hydrochloride) and 50 mM NHS (N-hydroxysuccinimide), and was then allowed to stand for 10 minutes. After the liquid exchange was carried out twice with 100 μl of Acetate 5.0 buffer (BIAcore), the liquid was exchanged with the acetate 5.0 solution containing Bovine Carbonic Anhydrase (hereinafter referred to as CA) (SIGMA) with the concentration shown in Table 2, and the resultant was allowed to stand for a certain period to immobilize CA. The inside of the chip was exchanged with 1 M ethanolamine solution and was then allowed to stand for 10 minutes. The interior of the chip was exchanged twice with 100 μl of Acetate 5.0 buffer to prepare CA-immobilized chip. The amount of the immobilized proteins was determined based on changes in signal intensities before and after CA immobilization. Also, the period for adding CA solution is changed, and the minimum period necessary to achieve the immobilized CA amount of 3000 RU or more was determined.
# The flow channel system of the CA-immobilized chips, the amount of CA immobilized thereto was approximately 3,000 RU, was filled with 1×PBS buffer (pH 7.4). Based on the signal intensity before liquid exchange, changes in the signal intensity were measured at intervals of 0.5 seconds. The content of the flow channel system was exchanged with a hydrochlorothiazide solution (Sigma) (dissolved in 1×PBS (pH 7.4) to result in 50 μM therein). Changes in signal intensities were determined from 5 seconds before the initiation of the exchange to 2 minutes after the exchange.
# T1 sequence (P00921 whole entry): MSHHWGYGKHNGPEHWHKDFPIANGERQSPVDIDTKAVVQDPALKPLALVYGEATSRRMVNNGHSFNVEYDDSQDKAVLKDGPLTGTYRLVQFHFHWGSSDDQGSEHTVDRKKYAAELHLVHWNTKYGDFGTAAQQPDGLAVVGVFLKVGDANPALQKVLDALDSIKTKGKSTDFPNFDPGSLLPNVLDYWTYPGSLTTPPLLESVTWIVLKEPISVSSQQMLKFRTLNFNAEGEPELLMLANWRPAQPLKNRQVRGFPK
# Carbonic anhydrase, sequence (P00921 whole entry): as above
structure (smiles),measurement,setting,value
"NS(=O)(=O)c1cc2c(cc1Cl)NCNS2(=O)=O [Hydrochlorothiazide, hydrochlorothiazide]",Hydrochlorothiazide Binding amount,"[1]; Level 1: dextran (branched) chip, carbonic anhydrase immobilized 1500 RU",5 RU
same,Hydrochlorothiazide Binding amount,"[1]; Level 5: pullulan (linear) chip, carbonic anhydrase immobilized 2500 RU",10 RU
same,Hydrochlorothiazide Binding amount,"[2]; Level 2: dextran 15% by weight chip, CA 200 μg/ml",−15 RU
same,Hydrochlorothiazide Binding amount,"[2]; Level 3: dextran 25% by weight chip, CA 20 μg/ml",2 RU
same,Hydrochlorothiazide Binding amount,"[2]; Level 4: dextran 25% by weight chip, CA 200 μg/ml",−30 RU
same,Hydrochlorothiazide Binding amount,"[2]; Level 5: amylose 10% by weight chip, CA 20 μg/ml",17 RU
same,Hydrochlorothiazide Binding amount,"[2]; Level 6: amylose 10% by weight chip, CA 200 μg/ml",11 RU
same,Hydrochlorothiazide Binding amount,"[2]; Level 7: amylose 15% by weight chip, CA 20 μg/ml",15 RU
same,Hydrochlorothiazide Binding amount,"[2]; Level 8: amylose 15% by weight chip, CA 200 μg/ml",10 RU
